Test results from paper PMC9386018, “A lymphatic-absorbed multi-targeted kinase inhibitor for myelofibrosis therapy” (Nature Communications, 2022).
“And” between values parts separate entries of the source, which are not always exact repeats. Equal values may be shown once.

Columns and labels:
[1] = target: MEK1 (Homo sapiens, UniProt Q02750); assay: Target kinase 10-point inhibition assay, MEK1; format: biochemical; settings: replicates
From the text: The average percent kinase inhibition from replicate data was ranked low to high, converted to a compatible identifier format, then input into Coral Human Kinome Visualization software for presentation analysis. […] Scaling of evolutionary distance for PI kinases is only relative and is based on literature analysis[62],[63]. Average percent kinome inhibition values from replicate data are supplied in Source Data file. […] Corrected data was normalized to vehicle treated control values, and dose response percent kinase activity was analyzed by non-linear regression for determination of IC50 values.

[2] = Compound quantitation in blood and mesenteric lymph nodes; format: in vivo, mouse; settings: female, CD-1, mouse, mesenteric lymph nodes; mice, 30 min after oral 100-1000 mg kg^−1
Experimental: Whole blood and mesenteric lymph nodes were collected either 30 min or 4 h following compound administration and stored at −20 °C until future processing and analysis by the University of Michigan Pharmacokinetics Core as above, or as outlined below, to determine compound concentrations in each tissue. […] Data was generated from n ≥ 4 individual animals per compound per study group or dose.
(§1) Briefly, acetonitrile was added to a final concentration of 60–80% to bone marrow, whole blood, plasma, lymphatic fluid, lymphatic proteo-lipid sub-fractions, or mesenteric lymph node samples for compound extraction. Extraction was performed by shaking and/or bead rupture using a Precellys Evolution tissue homogenizer (Bertin Technologies SAS). […] Optimization of MS and MS/MS parameters for MRM quantitation and maximum sensitivity of individual compounds was performed using SCIEX Analyst software (AB Sciex). […] All LC-MS/MS acquisitions were performed with an independent standard curve for each group of analytes and for each individual run. All solvents utilized were of Optima LC-MS Grade (Fisher Scientific). Data was generated from n ≥ 2 individual animals per compound per study condition or dose.

[3] = Rat mesenteric lymph duct cannulation model: lymphatic fluid and blood; format: in vivo; settings: anesthetized rats; for Lymphatic fluid Concentration (ng/mL or ng/g): individual animals
Experimental: A rat mesenteric lymph duct cannulation model was used to collect and quantify LP-182 in lymphatic fluid, blood, and lymphatic proteo-lipid sub-fractions similar to previously described methods[37],[40]. Male Sprague-Dawley rats (n = 7) were anesthetized by isoflurane (Piramel, PA) and placed on a heated pad maintained at 37 °C using a Kent Scientific (Torrington, CT) low flow vaporizer and SomnoSuite for pulse oximetry and thermal regulation, respectively. The carotid artery, mesenteric lymph duct and duodenum were cannulated, and normal saline was continuously infused into the duodenum at 1.7 mL h^−1 using a constant rate infusion pump. After approx. 0.5 h, 50 mg kg^−1 of LP-182 solubilized in ~1.7 mL of either Maisine CC or a mixture of 93% Maisine CC and 7% Labrasol (Gattefossé; Saint-Priest, France) was infused over 1 h into the duodenum, followed by normal saline (as above) for the duration of the experiment. Hourly fractions of lymphatic fluid were collected continually (rate of ~0.5–1.2 mL h^−1) for approx. 6 h, while arterial blood samples (10–20 µL) were collected once per hour and stored at −20 °C for future analysis. Lymphatic fluid time course samples were either frozen or pooled for subsequent fractionation by ultracentrifugation to isolate proteo-lipid sub-fractions similar to previously described methods. Separation of chylomicrons was achieved by layering lymphatic fluid under PBS (Gibco; ThermoFisher Scientific) in a polyallomer ultracentrifuge tube (Beckman, CA), and centrifugation in a L8-70M ultracentrifuge (Beckman, CA) at 202,048 x g using a SW40Ti rotor (Beckman, CA) for 95 min at 15 °C. Following centrifugation, the semi-solid chylomicron layer at the top of the centrifuge tube was recovered and stored at −20 °C for future analysis. After replacing the void volume with PBS, the bottom layer underwent further ultracentrifugation for an additional 16 h as above, at which time a viscous dispersion of VLDL was collected from the top of the tube, and an aqueous fraction containing LDL/HDL from the bottom, which were stored at −20 °C for future analysis. All lymphatic fluid, blood, and fractionated chylomicron, VLDL, and LDL/HDL samples were analyzed by mass spectrometry for quantitation of LP-182 as outlined below. Relative LP-182 in lymphatic fluid proteo-lipid sub-fractions was calculated as the amount of compound in a specified fraction as a percentage of the cumulative amount of compound measured in all fractions. […] Relative LP-182 in blood was calculated as the amount of compound measured in a specified temporal fraction of blood as a percentage of the amount of compound measured in an equal volume of the same temporal fraction of lymphatic fluid, with the average calculated from all fractions. Data was generated from n = 2 individual animals sampled per time point per study condition due to limitations in blood volume collection.
as §1, with “Standards and compound extraction from biological fluids or tissues was performed using similar protocols, all resulting in recoveries ≥90%. Briefly,” for “Briefly,”

[4] = 1 h intra-duodenal infusion 50 mg kg^−1, 6 h

Sequence of MEK1 (Q02750 whole entry): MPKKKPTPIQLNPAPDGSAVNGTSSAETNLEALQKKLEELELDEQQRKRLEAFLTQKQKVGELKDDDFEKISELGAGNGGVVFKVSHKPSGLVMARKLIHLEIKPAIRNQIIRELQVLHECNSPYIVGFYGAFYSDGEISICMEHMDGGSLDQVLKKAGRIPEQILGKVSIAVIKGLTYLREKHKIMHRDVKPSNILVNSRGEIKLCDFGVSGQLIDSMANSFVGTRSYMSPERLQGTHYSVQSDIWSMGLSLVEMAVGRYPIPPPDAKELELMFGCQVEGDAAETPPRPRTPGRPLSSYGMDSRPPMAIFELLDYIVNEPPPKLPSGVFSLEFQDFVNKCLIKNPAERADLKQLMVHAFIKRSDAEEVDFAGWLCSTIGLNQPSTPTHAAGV

O=C(NOCCOCCOCCOCCC(=O)N1CCN(c2cnc3ccc(-c4cnc(Cl)c(NS(=O)(=O)c5ccc(F)cc5)c4)cc3n2)CC1)c1ccc(F)c(F)c1Nc1ccc(I)cc1F [LP-182, N-(2-(2-(2-(3-(4-(7-(6-chloro-5-((4-fluorophenyl)sulfonamido)pyridin-3-yl)quinoxalin-2-yl)piperazin-1-yl)-3-oxopropoxy)ethoxy)ethoxy)ethoxy)-3,4-difluoro-2-((2-fluoro-4-iodophenyl)amino)benzamide]
activity at 0.000495 µM ([1]; MEK1, 0.495 nM): 91%
Kinase Activity (%) ([1]; MEK1, 0.495 nM, 0.000495 µM): 94% and 100% (2×) and 98% (2×) and 87%
activity at 0.00152 µM ([1]; MEK1, 1.52 nM): 89%
Kinase Activity (%) ([1]; MEK1, 1.52 nM, 0.00152 µM): 94% (2×) and 102% (2×)
activity at 0.00457 µM ([1]; MEK1, 4.57 nM): 92%
Kinase Activity (%) ([1]; MEK1, 4.57 nM, 0.00457 µM): 77% and 86% and 84% and 81%
Kinase Activity (%) ([1]; MEK1, 41.2 nM, 0.0412 µM): 47% and 49% and 69% and 72% and 79% and 86% and 76% and 73%
Kinase Activity (%) ([1]; MEK1, 123 nM, 0.123 µM): 26% and 22% and 46% and 50% and 53% and 57% and 54% and 49%
Kinase Activity (%) ([1]; MEK1, 1110 nM, 1.11 µM): 0% and 3% (3×) and 8% (2×) and 9% (2×) and 5% and 12%
Kinase Activity (%) ([1]; MEK1, 3330 nM, 3.33 µM): -1% and 1% (2×) and 2% (2×) and 3% (3×) and 4% and 0%
Kinase Activity (%) ([1]; MEK1, 10000 nM, 10 µM): 0% and -2% (2×) and 8% and 9% and 4% and 2% and -1% and 3% (2×)
activity at 0.000495 µM ([1]; MEK1, concentration 0.495 nM): 90%
Kinase Activity (%) ([1]; MEK1, concentration 0.495 nM, 0.000495 µM): 100% (2×) and 98% (2×)
activity at 0.00152 µM ([1]; MEK1, concentration 1.52 nM): 99%
Kinase Activity (%) ([1]; MEK1, concentration 1.52 nM, 0.00152 µM): 94% (2×) and 102% (2×)
activity at 0.00457 µM ([1]; MEK1, concentration 4.57 nM): 95%
activity at 0.0412 µM ([1]; MEK1, concentration 41.2 nM): 65%
activity at 0.123 µM ([1]; MEK1, concentration 123 nM): 43%
activity at […] ([1]; MEK1, concentration 370 nM): 15%
Kinase Activity (%) ([1]; MEK1, concentration 1110 nM, 1.11 µM): 9% (2×) and 3% (3×) and 8% (2×)
Kinase Activity (%) ([1]; MEK1, concentration 3330 nM, 3.33 µM): 2% (2×) and 1% (2×) and 3% (3×)
Kinase Activity (%) ([1]; MEK1, concentration 10000 nM, 10 µM): 3% (2×) and -2% (2×)
concentration at 30 min [2]: 5 to 15 µM
Lymphatic fluid Concentration (ng/mL or ng/g) ([3]; 1 h intra-duodenal infusion 50 mg kg^−1, 0 h): 0 ng/mL or ng/g
Lymphatic fluid Concentration (ng/mL or ng/g) ([3]; 1 h intra-duodenal infusion 50 mg kg^−1, 1 h): 1075.78 ng/mL or ng/g and 810.78 ng/mL or ng/g and 1128.99 ng/mL or ng/g and 810.9 ng/mL or ng/g and 526.14 ng/mL or ng/g and 195.59 ng/mL or ng/g and 1185.4 ng/mL or ng/g
Lymphatic fluid Concentration (ng/mL or ng/g) ([3]; 1 h intra-duodenal infusion 50 mg kg^−1, 2 h): 15938.1 ng/mL or ng/g and 4987.49 ng/mL or ng/g and 11915.5 ng/mL or ng/g and 8277.36 ng/mL or ng/g and 1691.13 ng/mL or ng/g and 3232.84 ng/mL or ng/g and 9168 ng/mL or ng/g
Lymphatic fluid Concentration (ng/mL or ng/g) ([3]; 1 h intra-duodenal infusion 50 mg kg^−1, 3 h): 11950.5 ng/mL or ng/g and 2555.63 ng/mL or ng/g and 6787.62 ng/mL or ng/g and 11961.6 ng/mL or ng/g and 3014.24 ng/mL or ng/g and 1175.13 ng/mL or ng/g and 13326 ng/mL or ng/g
Lymphatic fluid Concentration (ng/mL or ng/g) ([3]; 1 h intra-duodenal infusion 50 mg kg^−1, 4 h): 4407.66 ng/mL or ng/g and 5844.35 ng/mL or ng/g and 3822.74 ng/mL or ng/g and 8176.6 ng/mL or ng/g and 1916.83 ng/mL or ng/g and 592.35 ng/mL or ng/g and 6976.86 ng/mL or ng/g
Lymphatic fluid Concentration (ng/mL or ng/g) ([3]; 1 h intra-duodenal infusion 50 mg kg^−1, 5 h): 4529.02 ng/mL or ng/g and 3482.33 ng/mL or ng/g and 3674.05 ng/mL or ng/g and 7088.41 ng/mL or ng/g and 2106.37 ng/mL or ng/g and 169.31 ng/mL or ng/g and 7019.83 ng/mL or ng/g
level in blood as % of total compound measured among each set of temporal fractions [3, 4]: 1.7%
Lymphatic fluid Concentration (ng/mL or ng/g) [3, 4]: 2432.36 ng/mL or ng/g and 2631.07 ng/mL or ng/g and 1756.69 ng/mL or ng/g and 8133.27 ng/mL or ng/g and 2059.99 ng/mL or ng/g and 330.98 ng/mL or ng/g and 2839 ng/mL or ng/g
